In BindingDB's records for doi:10.1021/jm00398a002 (University of Kansas, 1988):

Molecular target: Adenosylhomocysteinase (Bos taurus)
Assay: Time course of inactivation of bovine liver S-adenosyl-homocysteine hydrolase

Structure (SMILES) | Ki [µM]
Nc1ncnc2c1ncn2[C@@H]1C=C[C@@H](O)[C@H]1O | 0.041
Nc1nccc2c1ncn2C1C=C[C@@H](O)[C@H]1O (some centres not stated) | 0.035
